Data reported in patent US20240293339A1, “COMPOUNDS, COMPOSITIONS AND METHODS FOR THE PREVENTION AND/OR TREATMENT OF VARIOUS MITOCHONDRIAL DISEASES OR DISORDERS, INCLUDING FRIEDREICH'S ATAXIA” (Stealth Bio Therapeutics Inc., priority 2021, published 2024).
“Also recorded” adds a separate entry of the source.

Columns and labels:
[1] = Concentration of therapeutic agents in blood and brain tissue in rat following oral administration; format: in vivo; conditions: male SD rats; for Brain level: perfused brain homogenate; for Cmax: male, Sprague-Dawley, rat, plasma, po, 10 mg/kg; for drop in plasma concentration relative to the next larger compound pair: 2-1/3-1 vs vatiquinone/1-1, 4-1/5-1 vs 2-1/3-1; for brain level (in words): summary of Table 1 brain concentration data
Description: Example 7: Study of Concentration of Therapeutic Agents in Blood and Brain Tissue in Rat Following Oral Administration
This study was intended to examine and compare the concentration of the various therapeutic agents tested in blood and brain tissue shortly after oral administration to rats.
The experimental procedures were carried out in accordance with the guidelines of the European Community and local laws and policies and were approved by the Latvian Animal Protection Ethical Committee, Food and Veterinary Service, Riga, Latvia. Animals were housed in the animal facilities at the Latvian Institute of Organic Synthesis (LIOS) under standard conditions (21-23° C., 12 h light-dark cycle) with unlimited access to food (R70 diet, Lantmännen Lantbruk, Sweden) and water. Male Sprague Dawley (SD) rats (8 weeks old at the time of purchase, from Envigo) were used for the study and were allowed an acclimatization period of at least 1 week prior to treatment. No drugs or vaccines were administered before the start of the study. Only healthy animals were included in the study. Animals were weighed on the day of treatment (before treatment) to calculate the required volume of working solution of compound (i.e. therapeutic agent) administered. No drugs except the therapeutic agent to be tested were administered during the study. Rats were dosed orally with compound (1 times weight μL, solution 10 mg/mL, dissolved in sesame oil).
Animals were anaesthetized using 5% isoflurane inhalation at selected time points after administration of test compounds. Then chest was opened and blood drawn from the heart and collected in EDTA coated microtubes (Sarstedt). Transcardial perfusion was performed afterwards by perfusing ice-cold PBS solution for 4 minutes, ˜55 mL total perfusion volume. Afterwards brain tissues were collected in microtubes and frozen in liquid nitrogen. Blood was centrifuged for 3 min at 10000 g within 15 minutes of collection. Plasma was collected in low-binding microtubes (Nerbe plus) by adding 95 μL of plasma to 5 μL of 2% HCOOH to obtain 100 μL of plasma solution with HCOOH end concentration 0.1%. Plasma was frozen in liquid nitrogen and stored at −80° C.
Tissue samples were weighed in 2 mL micro centrifuge tubes. Microtubes were kept on ice throughout the procedure. Tissue homogenates were prepared using acidified (0.1% HCOOH) water by adding 4 times volume to weighed samples. Two metal beads were placed in each micro centrifuge tube and brain tissues homogenized using Bead Ruptor (Omni International, USA) for 60 s using speed 4 ms per cycle. Homogenates (96 uL) were transferred to 1.5 mL low binding micro centrifuge tubes. Homogenates were frozen and kept at −80° C. until sample extraction for LC/MS/MS analysis.
Extraction of spiked SD Rat EDTA plasma or brain homogenate standards was performed by adding to 100 μL of spiked rat plasma or brain homogenate standard sample of 400 μL of deproteinization solution, 1% formic acid in MeOH with IS (reserpine 15 ng/mL). Samples were vortex mixed for 10 sec at 2800 rpm and incubated on orbital shaker for 10 min at 200 rpm. Then vortex mixed for 10 sec at 2800 rpm and centrifugated at 12000 rpm for 30 min in 5° C. Supernatants were transferred to LC vials and used for analysis. Extraction of rat EDTA plasma or brain homogenate analytical samples was performed by adding to 96 μL of rat plasma or brain homogenate analytical sample of 4 μL of DMSO, vortex mix the samples. Then 400 μL of deproteinization solution, 1% formic acid in MeOH with IS (reserpine 15 ng/mL) were added. Samples were vortex mixed for 10 sec at 2800 rpm and incubated on orbital shaker for 10 min at 200 rpm. Then vortex mixed for 10 sec at 2800 rpm and centrifugated at 12000 rpm for 30 min in 5° C. Supernatants were transferred to LC vials and used for analysis.
Data collected for each of the various therapeutic agents tested (i.e. vatiquinone and Compounds 1-1, 2-1, 3-1, 4-1 and 5-1 are summarized in Table 1, below.

[2] = tested on: frataxin deficient fibroblasts (Friedreich's ataxia patient fibroblast cell line GM03665); experiment: Frataxin deficient fibroblast viability assay (the BSO Assay); format: cell-based, human; conditions: for EC50: Homo sapiens, Fibroblast, FA patient fibroblasts pretreated with drug 250 nM down to 6.125 nM the day before BSO 10 mM, MTT 48 hrs later; for BSO assay activity compared with vatiquinone (in words) / protection against ferroptosis (in words): summary of Table 1 BSO assay data
Description: Example 6: Frataxin Deficient Fibroblast Viability Assay (the “BSO Assay”)
This Example was used to evaluate the various new compositions for their potential efficacy in the treatment of Friedreich's Ataxia (FA or FRDA) based on their potential to inhibit ferroptosis based on this BSO assay—performed substantially as described in the above cited Reference (Matthias et al.).
The stock solutions of the test articles (and control compounds) were prepared in dimethyl sulfoxide (DMSO at 10 mM). Working stock solutions (2 times concentrated) were prepared on the day of the experiment in respective cell culture medium to be used for assay (detailed medium description below). A listing of compounds used as test articles in this Example 12 are found in Table 1, below.
A patient derived frataxin deficient fibroblast cell line was obtained from Coriell Institute. More specifically, the following cell lines/DNA samples were obtained from the NIGMS Human Genetic Cell Repository at the Coriell Institute for Medical Research: GM03665. To evaluate importance of various growth conditions on cell susceptibility to BSO toxicity cells were grown on:
MEM (Sigma-Aldrich) 15% Fetal Bovine Serum (FBS) without growth factors;
MEM (Sigma-Aldrich) 15% FBS with growth factors (Catalogue number 100-18B, Recombinant Human FGF-basic (154 a.a.) and catalogue number AF-100-15, Animal-Free Recombinant Human EGF from Peprotech);
MEM199/MEM EBS (Bioconcept Ltd.) 10% FBS, insulin 10 μg/ml, L-glutamine 2 mM with growth factors (Catalogue number 100-18B, Recombinant Human FGF-basic (154 a.a.) and catalogue number AF-100-15, Animal-Free Recombinant Human EGF from Peprotech).
To conduct an experiment, fibroblast cells (from all growth conditions) were seeded (100 μL (cells 3×10∧3/well) on 96-well plates in MEM199/MEM EBS medium 10% FBS, insulin 10 μg/mL, L-glutamine 2 mM with growth factors and allowed to grow on plate for 24 hrs. After 24 hrs., media was removed and then test compounds of interest were added (100 μL, 2 times concentrated stock) to 96-well plates (end DMSO concentration not exceeding 0.5%) and incubated for 24 hours. Then L-buthionine-sulfoximine (BSO, from Acros Organics, Cat. No. 235520010) was added (100 μL, 2 times concentrated stock) at end concentrations ranging from 1 to 10 mM. Both test compounds and BSO were dissolved in MEM199/MEM EBS medium 10% FBS, insulin 10 μg/mL, L-glutamine 2 mM with growth factors. Cell viability was monitored and either after 24- or 48-hours cell viability was assayed by MTT (Thiazolyl blue tetrazolium bromide) assay. For the MTT assay, media was removed and 100 μL of MTT 1 mg/mL was added, incubated for 2 hours at +37° C., then medium was removed and 100 μL of isopropanol added to dissolve sediment. Absorption was measured at 570 (OD570) and 650 (OD650) nm wavelengths. Control cells (vehicle instead of BSO and compound) and vehicle control (with BSO, but vehicle instead of test compound) were treated in the same manner as cells with BSO and compound. All cell media contained penicillin and streptomycin 100 U/mL each.
Absorption readouts were processed as follows: ValueΔ=ValueOD570-ValueOD650 and the obtained values were used to calculate cell viability as % of control cell (i.e., no BSO, no compound, just vehicle) viability.
Except as otherwise indicated in Table 1, all samples were run in at least 3 replicates for test compounds and at least 8 replicates for controls (i.e., both control (no BSO, no compound) and vehicle control (i.e., with BSO, no compound). Exact N per data points are indicated in the figures/table legends. Results for the compounds (test articles and controls) tested are listed in Table 1, below.
This is a cell-based assay measuring cytotoxicity which results from oxidative stress subsequent to depletion of endogenous glutathione defense mechanisms. […]

[3] = 10 mg/mL solution in sesame oil, LC/MS/MS
[4] = 10 mg/mL solution in sesame oil, EDTA plasma, LC/MS/MS

Brain level [1, 3]	Cmax [1, 4]	drop in plasma concentration relative to the next larger compound pair [1]	Plasma Cmax [1, 4]	Compound	EC50 [2]	BSO assay activity compared with vatiquinone (in words) [2]	protection against ferroptosis (in words) [2]	brain level (in words) [1]
8.3 ng/g	~500 ng/mL	–	–	CC(C)=CCC/C(C)=C/CC/C(C)=C/CC[C@](C)(O)CCC1=C(C)C(=O)C(C)=C(C)C1=O [Compound 1-1, 2-[(3S,6E,10E)-3-hydroxy-3,7,11,15-tetramethyl-6,10,14-hexadecatrien-1-yl]-3,5,6-trimethyl-2,5-cyclohexadiene-1,4-dione]	16.6 nM	at least equivalent to that of vatiquinone; also recorded: as good as vatiquinone	protective against ferroptosis	–
24.5 ng/g	~100 ng/mL	~5 fold	–	CC(C)=CCC/C(C)=C/CC[C@@](C)(O)CCC1=C(C)C(=O)C(C)=C(C)C1=O [Compound 2-1, (R,E)-2-(3-hydroxy-3,7,11-trimethyldodeca-6,10-dien-1-yl)-3,5,6-trimethylcyclohexa-2,5-diene-1,4-dione]	141 nM	not quite as effective as vatiquinone	protective against ferroptosis	comparable to those observed with vatiquinone
22.0 ng/g	~100 ng/mL	~5 fold	–	CC(C)=CCC/C(C)=C/CC[C@](C)(O)CCC1=C(C)C(=O)C(C)=C(C)C1=O [Compound 3-1, (S,E)-2-(3-hydroxy-3,7,11-trimethyldodeca-6,10-dien-1-yl)-3,5,6-trimethylcyclohexa-2,5-diene-1,4-dione]	41.2 nM	as good as vatiquinone	protective against ferroptosis	comparable to those observed with vatiquinone
0 ng/g	5.5 ng/mL	~20 fold	–	CC(C)=CCC[C@@](C)(O)CCC1=C(C)C(=O)C(C)=C(C)C1=O [Compound 4-1, (R)-2-(3-hydroxy-3,7-dimethyloct-6-en-1-yl)-3,5,6-trimethylcyclohexa-2,5-diene-1,4-dione]	90.5 nM	not quite as effective as vatiquinone	protective against ferroptosis	no concentration of these compounds detected
0 ng/g	3.2 ng/mL	~20 fold	–	CC(C)=CCC[C@](C)(O)CCC1=C(C)C(=O)C(C)=C(C)C1=O [Compound 5-1, (S)-2-(3-hydroxy-3,7-dimethyloct-6-en-1-yl)-3,5,6-trimethylcyclohexa-2,5-diene-1,4-dione]	39 nM	as good as vatiquinone	protective against ferroptosis	no concentration of these compounds detected
20.8 ng/g	~500 ng/mL	–	457 ng/mL	CC(C)=CCC/C(C)=C/CC/C(C)=C/CC[C@@](C)(O)CCC1=C(C)C(=O)C(C)=C(C)C1=O [vatiquinone, 2-[(3R,6E, 10E)-3-Hydroxy-3,7,11,15-tetramethyl-6,10,14-hexadecatrien-1-yl]-3,5,6-trimethyl-2,5-cyclohexadiene-1,4-dione, reference compound]	40.7 nM	–	protective against ferroptosis	–
